From patent publication US4857507A, “Angiotensinogen analogs” (Abbott Laboratories, priority 1987, dated 1989) come the findings set out here.

In this test the target is T1, human renal renin (Homo sapiens, UniProt P00797).
T1 construct: human renal renin, free from acid proteolytic activity; from tissue; host or cells: human kidney (from the word 'renal')
T1 sequence (P00797 67-406): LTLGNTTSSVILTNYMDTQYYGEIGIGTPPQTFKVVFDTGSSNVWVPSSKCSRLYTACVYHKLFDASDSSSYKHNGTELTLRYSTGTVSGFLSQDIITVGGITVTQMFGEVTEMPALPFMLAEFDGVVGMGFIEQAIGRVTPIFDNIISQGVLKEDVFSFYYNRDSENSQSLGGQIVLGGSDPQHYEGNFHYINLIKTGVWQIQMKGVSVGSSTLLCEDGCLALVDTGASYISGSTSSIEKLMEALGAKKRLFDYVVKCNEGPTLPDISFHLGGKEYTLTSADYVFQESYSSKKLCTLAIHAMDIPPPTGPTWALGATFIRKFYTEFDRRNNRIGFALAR
Briefly: inhibition of human renal renin in vitro, angiotensin I formed measured by radioimmunoassay. The following applies: human renal renin with human renin substrate (angiotensinogen), 37° C., pH 6.0. The format is biochemical. The protocol: At the end of the incubation, the amount of angiotensin I formed is measured by radioimmunoassay and the molor concentration required to cause 50% inhibition, expressed as the IC50, is calculated.

For the compound `CC(C)C[C@H](NC(=O)C(Cc1cnc[nH]1)NC(=O)C(Cc1ccccc1)NC(=O)OC(C)(C)C)[C@@H](O)CCS(=O)(=O)CCc1ccccc1` (stereo partly drawn) [Example 23, Boc-Phe-His amide of (3S,4S)-4-amino-3-hydroxy-6-methyl-1-phenethylsulfonylheptane], the IC50 (commonly the concentration that inhibits the measured activity by half) stood at 80 nM. As for `CC(C)S(=O)(=O)NCC[C@H](O)[C@H](CC1CCCCC1)NC(=O)C(Cc1cnc[nH]1)NC(=O)C(Cc1ccccc1)NC(=O)OC(C)(C)C` (stereo partly drawn) [Example 50, Boc-Phe-His Amide of (3S,4S)-1-(2-propylsulfonylamino)-3-hydroxy-4-amino-5-cyclohexylpentane], the figure is 25 nM; as for `CCCS(=O)(=O)CC(=O)NCC[C@H](O)[C@H](CC1CCCCC1)NC(=O)[C@H](Cc1cnc[nH]1)NC(=O)[C@H](Cc1ccccc1)NC(=O)OC(C)(C)C` [Example 68, Boc-Phe-His Amide of (3S,4S)-1-(2-Propylsulfonylacetylamino)-3-hydroxy-4-amino-5-cyclohexylpentane], 20 nM. On to `CC(C)CCC(=O)CC[C@H](O)[C@H](CC(C)C)NC(=O)[C@H](C)NC(=O)[C@H](Cc1ccccc1)NC(=O)OC(C)(C)C` [Example 30, Boc-Phe-Ala amide of (4S,5S)-4-amino-2,11-dimethyl-5-hydroxy-8-oxododecane], for which the IC50 was 2500 nM. Compound `CC(C)CCC(=O)NCC[C@H](O)[C@H](CC1CCCCC1)NC(=O)[C@H](Cc1cnc[nH]1)NC(=O)[C@H](Cc1ccccc1)NC(=O)OC(C)(C)C` [Example 35, Boc-Phe-His Amide of (3S,4S)-1-(3-Methylbutylcarbonylamino)-3-hydroxy-4-amino-5-cyclohexylpentane] came in with a half-maximal inhibitory concentration (IC50) of 15 nM. As to `CC(C)C[C@H](NC(=O)[C@H](C)NC(=O)[C@H](Cc1ccccc1)NC(=O)OC(C)(C)C)[C@@H](O)CCS(=O)(=O)CCc1ccccc1` [Example 18, Boc-Phe-Ala amide of (3S,4S)-4-amino-3-hydroxy-6-methyl-1-phenethylsulfonylheptane], the IC50 was found to be 2000 nM. This IC50 is about 130-fold higher than that of the compound before. `CC(C)C[C@H](NC(=O)[C@H](Cc1ccccc1)NC(=O)OC(C)(C)C)C(=O)N[C@@H](CC1CCCCC1)[C@@H](O)C(F)(F)CN=[N+]=[N-]` [Example 78, Boc-Phe-Leu amide of (3R,4S)-3-hydroxy-4-amino-2,2-difluoro-1-azido-5-cyclohexylpentane] returned an IC50 of 30 nM. `CC(C)C[C@H](NC(=O)C(C)NC(=O)C(Cc1ccccc1)NC(=O)OC(C)(C)C)[C@@H](O)CCSCCc1ccccc1` (stereo partly drawn) [Example 16, Boc-Phe-Ala amide of (3S,4S)-4-amino-3-hydroxy-6-methyl-1-phenethylmercaptoheptane] had an IC50 of 4000 nM. In the case of `CC(C)CCC(=O)NCC(F)(F)C(=O)[C@H](CC1CCCCC1)NC(=O)[C@H](CC(C)C)NC(=O)[C@H](Cc1ccccc1)NC(=O)OC(C)(C)C` [Example 94, Boc-Phe-Leu amide of (4S)-3-oxo-4-amino-2,2-difluoro-1-isopentylcarbonylamino-5-cyclohexylpentane], the IC50 was determined as 2 nM. In turn, `CC(C)C[C@H](NC(=O)[C@H](Cc1ccccc1)NC(=O)OC(C)(C)C)C(=O)N[C@@H](CC1CCCCC1)C(=O)C(F)(F)CN=[N+]=[N-]` [Example 88, Boc-Phe-Leu amide of (4S)-3-oxo-4-amino-2,2-difluoro-1-azido-5-cyclohexylpentane] came in with an IC50 of 2.5 nM. The IC50 values of the last two compounds are within 1.5-fold of each other. In turn, “Boc-Phe-dl-3-pyrazolylalanine Amide of (3S,4S)-1-(3-Methylbutylcarbonylamino)-3-hydroxy-4-amino-5-cyclohexylpentane [Example 58]” came in with an IC50 of 6 nM. Compound `CC(C)C[C@H](NC(=O)[C@H](Cc1ccccc1)NC(=O)OC(C)(C)C)C(=O)N[C@@H](CC1CCCCC1)[C@@H](O)C(F)(F)CSC(C)C` [Example 83(A), Boc-Phe-Leu amide of (3R,4S)-3-hydroxy-4-amino-2,2-difluoro-1-isopropylmercapto-5-cyclohexylpentane] yielded a concentration for half-maximal inhibition (IC50) of 25 nM.
